Activity calls are given as the source filed them. The rule behind the calls is not given here.
Experiments:
[1] = molecular target: Sodium-dependent serotonin transporter (Homo sapiens, UniProt P31645); experiment: Binding affinity to human 5-HT transporter by radioligand displacement assay
Glucocorticoid receptor = Glucocorticoid receptor (Homo sapiens, UniProt P04150); experiment: Binding affinity to human glucocorticoid receptor by radioligand displacement assay
[2] = Binding affinity to GABAA receptor by radioligand displacement assay
Histamine H1 receptor = Histamine H1 receptor (Homo sapiens, UniProt P35367); experiment: Binding affinity to human histamine H1 receptor by radioligand displacement assay
Phosphodiesterase 4 = Phosphodiesterase 4 (Homo sapiens, UniProt P27815+Q08499+Q07343+Q08493); experiment: Binding affinity to human PDE4 rolipram binding site by radioligand displacement assay; type: protein assay
Rattus norvegicus = organism: Rattus norvegicus; experiment: Hepatic blood flow in rat; type: ADME, organism-based, Liver
[3] = molecular target: Alpha-1D adrenergic receptor (Homo sapiens, UniProt P25100); experiment: Binding affinity to human adrenergic Alpha-1D receptor by radioligand displacement assay
[4] = molecular target: Neuronal acetylcholine receptor; alpha4/beta2 (Homo sapiens, UniProt P17787+P43681); experiment: Binding affinity to nAChR alpha4beta2 receptor by radioligand displacement assay; type: protein-complex assay
[5] = Binding affinity to PDE4 by enzyme assay
[6] = Binding affinity to human Ca2+ channel diltiazem site by radioligand displacement assay
[7] = molecular target: T1, Muscarinic acetylcholine receptor M5 (Homo sapiens, UniProt P08912); experiment: biochemical
T1 sequence (P08912 whole entry): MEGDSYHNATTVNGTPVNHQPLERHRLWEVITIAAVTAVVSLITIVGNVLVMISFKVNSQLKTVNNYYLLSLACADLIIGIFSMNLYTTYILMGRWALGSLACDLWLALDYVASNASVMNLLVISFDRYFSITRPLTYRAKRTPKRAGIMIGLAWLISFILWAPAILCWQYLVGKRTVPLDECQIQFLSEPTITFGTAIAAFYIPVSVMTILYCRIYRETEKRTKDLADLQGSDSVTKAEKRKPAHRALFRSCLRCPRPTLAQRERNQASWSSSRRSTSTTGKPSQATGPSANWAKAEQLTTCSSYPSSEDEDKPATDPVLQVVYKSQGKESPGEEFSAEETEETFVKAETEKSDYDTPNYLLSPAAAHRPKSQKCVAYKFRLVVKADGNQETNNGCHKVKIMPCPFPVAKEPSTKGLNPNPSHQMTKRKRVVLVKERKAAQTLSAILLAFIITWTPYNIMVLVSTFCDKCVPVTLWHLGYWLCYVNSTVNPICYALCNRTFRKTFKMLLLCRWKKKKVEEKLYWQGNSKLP
Description: Displacement of [3H]-4-DAMP from human muscarinic M5 receptor expressed in BHK-21 cells

[8] = molecular target: T2, Muscarinic acetylcholine receptor M1 (Homo sapiens, UniProt P11229); experiment: Binding affinity to human muscarinic M1 receptor by radioligand displacement assay
T2 sequence (P11229 whole entry): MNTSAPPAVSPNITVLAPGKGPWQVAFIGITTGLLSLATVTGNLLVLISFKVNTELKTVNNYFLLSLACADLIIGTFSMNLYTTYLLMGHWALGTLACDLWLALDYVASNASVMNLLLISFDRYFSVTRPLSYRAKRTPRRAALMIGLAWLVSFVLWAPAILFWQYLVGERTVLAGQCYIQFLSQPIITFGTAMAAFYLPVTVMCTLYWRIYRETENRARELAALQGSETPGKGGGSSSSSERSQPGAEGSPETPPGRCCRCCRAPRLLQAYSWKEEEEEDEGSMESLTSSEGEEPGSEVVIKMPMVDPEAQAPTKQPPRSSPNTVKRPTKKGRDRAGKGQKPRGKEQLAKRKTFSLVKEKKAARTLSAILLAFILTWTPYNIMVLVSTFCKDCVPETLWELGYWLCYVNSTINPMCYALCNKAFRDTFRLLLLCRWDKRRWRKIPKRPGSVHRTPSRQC

[9] = molecular target: Mitogen-activated protein kinase 14 (Homo sapiens, UniProt Q16539); experiment: Binding affinity to p38alpha by enzyme assay
[10] = molecular target: Urotensin-2 receptor (Homo sapiens) (UniProt Q9UKP6); experiment: Binding affinity to human UT1 receptor by radioligand displacement assay
[11] = Binding affinity to voltage gated Na channel site 2 by radioligand displacement assay
[12] = molecular target: 5-hydroxytryptamine receptor 3A (Homo sapiens, UniProt P46098); experiment: Binding affinity to human 5-HT3 receptor by radioligand displacement assay
[13] = molecular target: 5-hydroxytryptamine receptor 2C (Homo sapiens, UniProt P28335); experiment: Binding affinity to human 5HT2C receptor agonist site by radioligand displacement assay
Adenosine receptor A1 = Adenosine receptor A1 (Homo sapiens, UniProt P30542); experiment: Binding affinity to human adenosine A1 receptor by radioligand displacement assay
[14] = Binding affinity to human muscle-type nicotinic acetylcholine receptor by radioligand displacement assay
[15] = molecular target: Alpha-2B adrenergic receptor (Homo sapiens, UniProt P18089); experiment: Binding affinity to adrenergic alpha2B receptor by radioligand displacement assay
[16] = molecular target: T3, Muscarinic acetylcholine receptor M1 (Homo sapiens) (UniProt P11229); experiment: Agonist activity at human muscarinic M1 receptor expressed in CHO-K1 cells assessed as increase of acetylcholine-induced calcium flux by FLIPR assay in presence of atropine; type: functional, cell-based
T3 sequence (whole entry): T2 sequence (P11229 whole entry)

[17] = Ratio of brain to plasma AUC in Sprague-Dawley rat at 10 mg/kg, sc; type: ADME, organism-based; parameters: dose 10 mg/kg, route subcutaneous
[18] = molecular target: T4, Muscarinic acetylcholine receptor M4 (Homo sapiens) (UniProt P08173); experiment: Agonist activity at human muscarinic M4 receptor expressed in BHK-21 cells coexpressing Galpha16 subunit assessed as increase of acetylcholine-induced calcium flux at 10 uM by FLIPR assay relative to acetylcholine; type: functional, cell-based
T4 sequence (whole entry): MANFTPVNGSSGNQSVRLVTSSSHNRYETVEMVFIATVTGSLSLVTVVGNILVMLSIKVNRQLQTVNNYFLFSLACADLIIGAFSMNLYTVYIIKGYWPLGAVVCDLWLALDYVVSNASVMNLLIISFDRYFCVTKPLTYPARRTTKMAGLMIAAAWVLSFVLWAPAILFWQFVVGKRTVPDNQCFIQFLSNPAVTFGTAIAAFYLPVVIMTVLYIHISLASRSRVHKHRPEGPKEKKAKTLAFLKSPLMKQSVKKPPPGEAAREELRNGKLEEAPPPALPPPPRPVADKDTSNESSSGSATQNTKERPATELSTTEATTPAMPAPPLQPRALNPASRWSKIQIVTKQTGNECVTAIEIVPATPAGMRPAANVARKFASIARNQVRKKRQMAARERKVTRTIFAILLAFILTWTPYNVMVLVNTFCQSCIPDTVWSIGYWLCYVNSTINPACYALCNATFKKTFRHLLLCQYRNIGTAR

[19] = Drug level in C57/6J mouse brain at 20 mg/kg, sc after 60 mins; type: ADME, organism-based; parameters: dose 20 mg/kg, route subcutaneous; conditions: read-out: Activity
Brain = experiment: Protein binding in C57/6J mouse brain homogenates at 20 mg/kg, sc by equilibrium dialysis; type: ADME, organism-based; parameters: dose 20 mg/kg, route subcutaneous; conditions: in vivo
[20] = molecular target: Gastrin/cholecystokinin type B receptor (Homo sapiens, UniProt P32239); experiment: Binding affinity to human CCK2 receptor by radioligand displacement assay

Sequence of Alpha-2B adrenergic receptor (P18089 whole entry): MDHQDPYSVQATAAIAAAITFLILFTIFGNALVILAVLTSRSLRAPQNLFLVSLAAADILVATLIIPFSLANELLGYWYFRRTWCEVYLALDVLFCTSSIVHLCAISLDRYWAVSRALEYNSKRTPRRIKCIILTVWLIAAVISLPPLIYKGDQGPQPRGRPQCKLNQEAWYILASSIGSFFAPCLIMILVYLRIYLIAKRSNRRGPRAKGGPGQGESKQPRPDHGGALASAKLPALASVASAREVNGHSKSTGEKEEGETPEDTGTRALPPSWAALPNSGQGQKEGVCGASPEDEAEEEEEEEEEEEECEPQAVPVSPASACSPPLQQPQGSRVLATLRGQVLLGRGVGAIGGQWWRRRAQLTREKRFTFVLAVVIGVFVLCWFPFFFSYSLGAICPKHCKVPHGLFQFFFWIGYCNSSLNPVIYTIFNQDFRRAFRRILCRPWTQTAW
Sequence of 5-hydroxytryptamine receptor 2C (P28335 whole entry): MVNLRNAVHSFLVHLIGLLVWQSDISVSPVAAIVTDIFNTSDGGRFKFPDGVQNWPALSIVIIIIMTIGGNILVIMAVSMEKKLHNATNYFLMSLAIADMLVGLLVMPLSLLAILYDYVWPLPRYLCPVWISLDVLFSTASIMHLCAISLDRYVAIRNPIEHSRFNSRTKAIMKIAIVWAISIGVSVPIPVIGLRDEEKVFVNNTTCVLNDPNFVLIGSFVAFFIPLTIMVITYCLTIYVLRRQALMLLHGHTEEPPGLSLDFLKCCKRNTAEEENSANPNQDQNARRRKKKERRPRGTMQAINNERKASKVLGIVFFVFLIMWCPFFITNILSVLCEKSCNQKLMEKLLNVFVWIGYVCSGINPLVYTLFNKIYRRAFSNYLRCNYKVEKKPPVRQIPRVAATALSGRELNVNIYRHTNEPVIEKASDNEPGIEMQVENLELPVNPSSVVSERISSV
Sequence of Histamine H1 receptor (P35367 whole entry): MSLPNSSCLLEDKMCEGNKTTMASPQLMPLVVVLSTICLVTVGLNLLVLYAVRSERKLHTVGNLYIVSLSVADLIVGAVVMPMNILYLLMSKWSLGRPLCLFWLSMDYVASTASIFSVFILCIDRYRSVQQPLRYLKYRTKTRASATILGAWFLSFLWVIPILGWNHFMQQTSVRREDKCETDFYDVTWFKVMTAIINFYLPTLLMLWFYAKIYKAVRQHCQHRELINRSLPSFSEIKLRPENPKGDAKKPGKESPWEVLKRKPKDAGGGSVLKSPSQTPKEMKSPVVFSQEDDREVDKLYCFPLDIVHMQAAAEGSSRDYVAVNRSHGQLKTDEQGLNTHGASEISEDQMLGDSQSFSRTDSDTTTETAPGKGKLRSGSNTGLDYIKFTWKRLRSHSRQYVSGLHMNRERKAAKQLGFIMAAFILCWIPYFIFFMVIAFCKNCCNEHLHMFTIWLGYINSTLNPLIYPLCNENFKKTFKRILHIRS
Sequence of Mitogen-activated protein kinase 14 (Q16539 whole entry): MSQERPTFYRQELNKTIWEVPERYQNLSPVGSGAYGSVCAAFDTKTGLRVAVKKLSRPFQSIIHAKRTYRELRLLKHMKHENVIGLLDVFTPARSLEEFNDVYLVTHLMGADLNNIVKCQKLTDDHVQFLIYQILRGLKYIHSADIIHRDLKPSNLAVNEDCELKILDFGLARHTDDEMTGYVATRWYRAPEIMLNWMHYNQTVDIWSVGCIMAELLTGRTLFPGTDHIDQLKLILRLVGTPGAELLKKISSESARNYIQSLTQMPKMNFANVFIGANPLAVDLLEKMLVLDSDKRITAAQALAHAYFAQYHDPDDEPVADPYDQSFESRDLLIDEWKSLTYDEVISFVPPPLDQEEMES
Sequence of Neuronal acetylcholine receptor; alpha4/beta2 (P17787 whole entry): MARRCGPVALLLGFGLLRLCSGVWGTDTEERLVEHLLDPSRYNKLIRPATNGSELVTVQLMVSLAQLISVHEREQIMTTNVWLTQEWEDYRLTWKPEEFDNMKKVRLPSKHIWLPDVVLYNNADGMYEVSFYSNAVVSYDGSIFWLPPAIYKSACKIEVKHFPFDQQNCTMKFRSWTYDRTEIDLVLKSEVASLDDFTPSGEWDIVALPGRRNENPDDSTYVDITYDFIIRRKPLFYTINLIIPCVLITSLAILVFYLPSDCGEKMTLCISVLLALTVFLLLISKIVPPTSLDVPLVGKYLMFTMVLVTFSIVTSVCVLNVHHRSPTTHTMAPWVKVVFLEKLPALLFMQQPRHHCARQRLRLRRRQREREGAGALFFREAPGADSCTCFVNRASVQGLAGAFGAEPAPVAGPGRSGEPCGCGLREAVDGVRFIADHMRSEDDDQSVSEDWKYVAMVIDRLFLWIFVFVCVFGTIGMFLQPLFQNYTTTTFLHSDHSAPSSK
Sequence of Neuronal acetylcholine receptor; alpha4/beta2 (P43681 whole entry): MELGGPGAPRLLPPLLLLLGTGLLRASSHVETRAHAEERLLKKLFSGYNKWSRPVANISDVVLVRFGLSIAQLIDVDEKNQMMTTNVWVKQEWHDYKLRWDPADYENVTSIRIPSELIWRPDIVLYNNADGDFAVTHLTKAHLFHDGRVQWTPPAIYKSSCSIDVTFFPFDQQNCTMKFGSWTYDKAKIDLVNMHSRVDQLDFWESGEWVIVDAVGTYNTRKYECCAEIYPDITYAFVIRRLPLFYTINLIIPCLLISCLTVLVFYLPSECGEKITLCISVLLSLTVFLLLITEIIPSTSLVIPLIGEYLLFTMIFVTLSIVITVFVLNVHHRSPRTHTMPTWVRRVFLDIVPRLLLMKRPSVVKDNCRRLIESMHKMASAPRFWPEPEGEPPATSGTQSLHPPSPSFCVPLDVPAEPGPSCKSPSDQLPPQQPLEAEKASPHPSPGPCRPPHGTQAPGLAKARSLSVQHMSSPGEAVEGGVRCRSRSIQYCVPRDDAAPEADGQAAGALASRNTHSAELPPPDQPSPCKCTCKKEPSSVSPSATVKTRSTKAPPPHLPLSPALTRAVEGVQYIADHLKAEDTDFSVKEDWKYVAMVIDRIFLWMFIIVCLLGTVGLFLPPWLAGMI
Sequence of Sodium-dependent serotonin transporter (P31645 whole entry): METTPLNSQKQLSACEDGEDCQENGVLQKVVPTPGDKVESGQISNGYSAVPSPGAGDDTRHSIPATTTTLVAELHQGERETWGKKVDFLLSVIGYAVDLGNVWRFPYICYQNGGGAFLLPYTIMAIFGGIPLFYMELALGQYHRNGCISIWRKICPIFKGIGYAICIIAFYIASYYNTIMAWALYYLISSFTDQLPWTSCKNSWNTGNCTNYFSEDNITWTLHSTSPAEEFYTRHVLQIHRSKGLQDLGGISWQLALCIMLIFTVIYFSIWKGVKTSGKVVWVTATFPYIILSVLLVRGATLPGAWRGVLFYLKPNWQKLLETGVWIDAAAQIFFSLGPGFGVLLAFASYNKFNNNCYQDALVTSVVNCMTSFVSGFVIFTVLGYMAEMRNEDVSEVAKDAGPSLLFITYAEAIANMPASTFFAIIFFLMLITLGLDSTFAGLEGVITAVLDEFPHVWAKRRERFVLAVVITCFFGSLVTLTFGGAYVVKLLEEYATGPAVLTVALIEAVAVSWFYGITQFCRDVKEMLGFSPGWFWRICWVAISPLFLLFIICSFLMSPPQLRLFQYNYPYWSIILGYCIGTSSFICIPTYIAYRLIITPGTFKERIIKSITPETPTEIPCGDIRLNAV
Sequence of Glucocorticoid receptor (P04150 whole entry): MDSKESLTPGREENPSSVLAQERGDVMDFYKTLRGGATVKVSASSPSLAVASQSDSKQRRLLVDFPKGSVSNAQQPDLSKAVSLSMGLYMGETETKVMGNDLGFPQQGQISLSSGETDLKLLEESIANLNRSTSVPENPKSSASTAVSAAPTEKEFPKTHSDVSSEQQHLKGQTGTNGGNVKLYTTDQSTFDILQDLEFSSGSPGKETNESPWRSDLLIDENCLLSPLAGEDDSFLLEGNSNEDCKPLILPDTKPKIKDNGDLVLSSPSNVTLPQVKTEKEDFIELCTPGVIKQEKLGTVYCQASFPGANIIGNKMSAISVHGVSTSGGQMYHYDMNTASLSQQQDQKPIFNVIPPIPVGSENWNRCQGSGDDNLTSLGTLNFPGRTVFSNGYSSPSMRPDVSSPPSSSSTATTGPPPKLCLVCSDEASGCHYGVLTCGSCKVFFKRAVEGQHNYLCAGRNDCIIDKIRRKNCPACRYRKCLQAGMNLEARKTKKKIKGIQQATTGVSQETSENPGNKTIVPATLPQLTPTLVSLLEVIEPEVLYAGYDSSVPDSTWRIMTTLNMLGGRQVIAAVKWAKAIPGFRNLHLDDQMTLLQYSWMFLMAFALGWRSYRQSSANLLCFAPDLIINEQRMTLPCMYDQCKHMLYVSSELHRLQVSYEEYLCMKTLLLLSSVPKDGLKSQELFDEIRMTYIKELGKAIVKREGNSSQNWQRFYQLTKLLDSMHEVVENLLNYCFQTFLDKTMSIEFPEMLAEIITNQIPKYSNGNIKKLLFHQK
Sequence of Adenosine receptor A1 (P30542 whole entry): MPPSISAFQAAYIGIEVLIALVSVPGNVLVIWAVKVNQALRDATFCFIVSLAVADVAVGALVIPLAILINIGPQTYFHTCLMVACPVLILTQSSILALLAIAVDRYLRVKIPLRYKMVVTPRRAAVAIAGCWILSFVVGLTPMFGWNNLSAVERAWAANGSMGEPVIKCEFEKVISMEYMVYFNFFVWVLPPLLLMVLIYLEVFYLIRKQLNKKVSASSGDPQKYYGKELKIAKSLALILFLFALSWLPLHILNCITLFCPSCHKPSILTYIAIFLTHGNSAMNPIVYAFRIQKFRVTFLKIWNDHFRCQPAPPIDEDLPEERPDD

For O=C(Cc1ccccc1)NC1CCN(CCCN2C(=O)COc3ccccc32)CC1, the Ki [1] was ≥ 1000 nM, the Ki (Glucocorticoid receptor) was ≥ 1000 nM and the Ki [2] was ≥ 1000 nM. For the same compound, the Ki (Histamine H1 receptor) was 780 nM, the Ki (Phosphodiesterase 4) was “>= 1000 nM” and the QH (Rattus norvegicus) was 20 mL/min. For the same compound, the Ki [3] was ≥ 1000 nM, the Ki [4] was ≥ 1000 nM and the Ki [5] was ≥ 1000 nM. For the same compound, the Ki [6] was ≥ 1000 nM, the Ki [7] was 8900 nM and the Ki [8] was ≥ 1000 nM. The Ki [9] was ≥ 1000 nM, the Ki [10] was ≥ 1000 nM and the Ki [11] was ≥ 1000 nM. For the same compound, the Ki [12] was ≥ 1000 nM, the Ki [13] was ≥ 1000 nM and the Ki (Adenosine receptor A1) was ≥ 1000 nM. The Ki [14] was ≥ 1000 nM, the Ki [15] was ≥ 1000 nM and the Activity [16] was “inactive”. For the same compound, the Kp [17] was 0.2, the Emax [18] was 6% and the concentration at 1 h [19] was 240 ng/g. For the same compound, the Activity (Brain) was 70% and the Ki [20] was ≥ 1000 nM.
